# Reference: US4721711A, “Pyridazine derivatives active on the central nervous system, and medicaments in which they are present” (Sanofi, priority 1983, dated 1988)
# Columns and labels:
# [1] = target: GABA post-synaptic receptor; test: displacement of tritiated GABA from its post-synaptic receptor (synaptic membranes, Enna and Snyder); format: binding; details: in vitro, tritiated GABA 3.6 nM, read-out: Median effective concentration (EC50) for displacement of tritiated GABA
# Protocol: The products according to the invention were studied for their activity on the central nervous system. Activity on the displacement of .UPSILON.-aminobutyric acid from its post-synaptic receptor. Method: The neurochemical activity of the derivatives of the present invention on the GABA-ergic system was evaluated by measuring the displacement of .UPSILON.-aminobutyric acid (GABA) from its post-synaptic receptor. The study was carried out by the method of ENNA and […] (Brain Res. 100, 81-97, 1975). The displacement experiment was carried out in vitro in the presence of a suspension of synaptic membranes and tritiated GABA at a final concentration of 3.6 nM.
# [2] = tested on: rotational behaviour of mice; test: rotational behaviour of mice after unilateral lesion of the nigro-striated passage by 6-(OH)-dopamine; format: in vivo, CD1 Charles River female mice; details: intraperitoneal, 1 hour after administration, over 2 minutes, **p 0.01
# Protocol: 3. Effect on the rotational behaviour of mice after unilateral lesion of the nigro-striated passage by 6-(OH)-dopamine
# The influence of the derivatives of the present invention on the central dopaminergic system was evaluated on the rotational behaviour of mice after unilateral lesion of the nigro-striated passage by 6-(OH)-dopamine. (P. PROTAIS and J. COSTENTIN, J. Pharmacol. 7(2), 251-255, 1976).
# CD1 Charles River female mice, weighing 20 to 24 g, have previously undergone unilateral lesion of the striatum by the stereotaxic injection of 6-(OH)-dopamine at a dose of 8 μg per animal. One week after this operation, the product to be studied was administered intraperitoneally to grouos of 7 mice. The number of rotations was evaluated over 2 minutes, 1 hour after the administration of the product. The rotations on the same side as the lesion were counted as positive and those on the opposite side were counted as negative. The algebraic sum of the rotations for a group treated animals was compared with that for the group of control animals which had only received the vehicle (physiological serum).
# [3] = tested on: spontaneous motility of mice; test: spontaneous motility of mice (activity test); format: in vivo; details: oral, 45 minutes after administration, recorded 10 minutes
# Protocol: 1. Activity on the motility of mice
# The tranquillising-sedative activity of the derivatives of the present invention was evaluated by measuring the spontaneous motility of mice by means of the activity test (J. R. BOISSIER and P. SIMON, Arch. Int. Pharmacodyn. 1965, 158, 212-221).
# The equipment consisted of activity cages of the Apelab type (length=26 cm; width=21.5 cm; height=10 cm), through which two rays of light pass, acting on a photoelectric cell.
# The animals were placed individually in the cages 45 minutes after oral administration of the product: each crossing of a light beam was counted by an individual counter. The scores corresponding to the movements of the animals were recorded for 10 minutes. The batches consisted of 12 mice per dose.
# [4] = tested on: reserpine-induced ptosis in mice; test: antagonism of reserpine-induced ptosis in mice; format: in vivo; details: Mus musculus, ip; intraperitoneal, with reserpine 2 mg/kg i.v., 1 hour, probit; (26-32)* on the line below
# Protocol: 2. Effect on the antagonism of reserpine-induced ptosis
# The antidepressive activity of the compounds was evaluated in the test for the antagonism of reserpine-induced ptosis in mice.
# This study was carried out on batches of 10 female mice weighing 20±1 g. The products were administered intraperitoneally at the same time as the reserpine (2 mg/kg, administered intravenously). The mice were observed individually 1 hour after the administrations. […] The median effective dose for antagonism (ED50) was evaluated by the probit method.
SMILES,EC50 [1],also measured
"Cc1cc(-c2cccc3ccccc23)n[n+](CCCC(=O)O)c1N [Example 24, 3-Amino-2-(3-carboxypropyl)-4-methyl-6-(naphth-1-yl)-2-pyridazinium chloride]",2.9 µM,
COc1ccc(-c2cc(C)c(N)[n+](CCCC(=O)O)n2)cc1 [Example 27],5 µM,
Cc1cc(-c2ccccc2Cl)n[n+](CCCC(=O)O)c1N [Example 29],3.2 µM,
Nc1ccc(-c2ccc(Cl)cc2Cl)n[n+]1CCCC(=O)O [Example 30],7 µM,
Nc1ccc(-c2ccc(Cl)cc2)n[n+]1CCCC(=O)O [Example 31],1.25 µM,
Cc1cc(-c2cccc(Cl)c2)n[n+](CCCC(=O)O)c1N [Example 33],0.7 µM,
Cc1ccc(-c2cc(C)c(N)[n+](CCCC(=O)O)n2)cc1 [Example 34],0.71 µM,
Cc1cc(-c2ccccc2)n[n+](CCCC(=O)O)c1N [Example 37],2.8 µM,
Nc1ccc(-c2ccccc2)n[n+]1CCCC(=O)O [Example 38],1.34 µM,
Cc1cc(-c2ccccc2)n[n+](CCC(=O)O)c1N [Example 39],10 µM,
Cc1cc(-c2ccccc2)n[n+](CCCCC(=O)O)c1N [Example 40],,"Rotational behaviour of mice, effect ([2]; 0,5 mg/kg): -50%; Rotational behaviour of mice, effect ([2]; 2 mg/kg): -62%; Motility of the mice, effect ([3]; 50 mg/kg, *p 0.05): -33%; Motility of the mice, effect ([3]; 100 mg/kg, **p 0.01): -48%; ED50 [4]: 29 mg/kg"
Nc1ccc(C2CCCCC2)n[n+]1CCCC(=O)O [Example 41],10.5 µM,
Nc1ccc(-c2ccsc2)n[n+]1CCCC(=O)O [Example 42],2.4 µM,
Nc1ccc(-c2cccs2)n[n+]1CCCC(=O)O [Example 43],0.83 µM,
"Cc1cc(-c2ccc(O)cc2)n[n+](CCCC(=O)O)c1N [Example 47, 3-Amino-2-(3-carboxypropyl)-4-methyl-6-(4-hydroxyphenyl)-2-pyridazinium bromide]",3 µM,
